The assay concerns the target T1, VEGFR1 (Homo sapiens, UniProt P17948).
T1 construct: GST-VEGFR1 (residues R781-I1338); GST (N); made in house; host or cells: Sf9 insect cells
T1 sequence (P17948 781-1338): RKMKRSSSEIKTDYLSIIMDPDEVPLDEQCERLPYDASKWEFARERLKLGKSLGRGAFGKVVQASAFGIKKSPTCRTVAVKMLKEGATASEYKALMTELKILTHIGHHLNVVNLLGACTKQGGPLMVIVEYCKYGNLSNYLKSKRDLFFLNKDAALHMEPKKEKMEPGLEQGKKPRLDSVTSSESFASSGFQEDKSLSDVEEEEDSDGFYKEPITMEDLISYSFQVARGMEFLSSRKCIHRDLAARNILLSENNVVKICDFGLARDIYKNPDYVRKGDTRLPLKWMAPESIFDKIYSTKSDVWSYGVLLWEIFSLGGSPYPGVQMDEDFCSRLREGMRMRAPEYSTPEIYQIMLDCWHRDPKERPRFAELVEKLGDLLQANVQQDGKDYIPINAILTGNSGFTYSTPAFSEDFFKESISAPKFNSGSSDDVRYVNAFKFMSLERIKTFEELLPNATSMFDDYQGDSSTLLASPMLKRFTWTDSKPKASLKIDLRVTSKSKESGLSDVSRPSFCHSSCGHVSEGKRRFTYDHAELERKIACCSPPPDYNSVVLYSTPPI
Nature of the assay: VEGFR1 Kinase-Glo kinase assay. In kind it is biochemical.

Setting [1] is: VEGFR1 assay, 1 μM ATP, bound in nM, read-out: IC50.
[2] abbreviates: VEGFR1 assay, 1 μM ATP, bound in μM, read-out: IC50.
[3] abbreviates: table of representative values, read-out: IC50 (nM) VEGFR1.

Drawing on patent publication US9255072B2, “Pyrazole compounds and thiazole compounds as protein kinases inhibitors” (National Health Rsearch Institutes, priority 2011, dated 2016), this text covers IC50 for two compounds.

Where two headings read alike, the source gives them in different places.

For orientation: IC50 means the point on the concentration scale where inhibition reaches its midpoint. `CCc1cc(NC(=O)Nc2ccc(-c3cnc(Nc4cc(N5CCC(N)C5)nc(C)n4)s3)cc2)no1` (stereo not drawn) [Compound 119, N-[4-(2-[6-(3-aminotetrahydro-1H-1-pyrrolyl)-2-methyl-4-pyrimidinyl]amino-1,3-thiazol-5-yl)phenyl]N′-(5-ethyl-3-isoxazolyl)urea]: the concentration for half-maximal inhibition (IC50) runs as follows: under setting [1], under 100 nM; under setting [2], under 1000 nM; under setting [3], 63 nM.
As to `CCc1cc(NC(=O)Nc2ccc(-c3cnc(Nc4cc(N5CCN(CC)CC5)nc(C)n4)s3)cc2)no1` [Compound 112, N-(5-ethyl-3-isoxazolyl)-N′-[4-(2-[6-(4-ethylpiperazino)-2-methyl-4-pyrimidinyl]amino-1,3-thiazol-5-yl)phenyl]urea], the IC50 under setting [1] is under 100 nM, the concentration for half-maximal inhibition (IC50) under setting [2] is under 1000 nM and the IC50 under setting [3] stood at 20 nM.
